Laboratory results as given in PubChem BioAssay AID1845213 (Molecular Pharmacology Branch, DTP, NCI, 2023).
Calls of active or inactive are those of the source. The calls were made as follows: active = viability on the fitted dose curve at most 10% of control; inactive = the rest.

Tested on: NCI-H841 complex tumor spheroid viability
Experiment: Anticancer human tumor NCI-H841 cell line growth inhibition;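 as to IC50: spheroids exposed to compounds for 7 days before readout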;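 as to viability, T/C: spheroids exposed to compounds for 7 days before readout; 100% = DMSO vehicle control wells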
Conditions: for IC50: curve of first compound; for viability, T/C: stronger effect = lower value
Method in brief: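 Single agents and combinations were tested on spheroids built from tumor cells plus HUVEC and hMSC, at half-log dilutions starting at or near clinical Cmax, else 10 microM; final DMSO 0.25% (v/v).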

[1] = second compound 0.003 µM, first compound 0.0316 µM
[2] = second compound 0.003 µM, first compound 0.1 µM
[3] = second compound 0.003 µM, first compound 0.316 µM
[4] = second compound 0.003 µM, first compound 1 µM
[5] = second compound 0.003 µM, first compound 3.16 µM
[6] = second compound 0.003 µM, first compound 10 µM

Cc1cc(C)c(CNC(=O)c2cc(-c3ccc(CN4CCOCC4)cc3)cc3c2cnn3C2CCCC2)c(=O)[nH]1 + CC[C@@]1(O)C(=O)OCc2c1cc1n(c2=O)Cc2cc3c(CN(C)C)c(O)ccc3nc2-1
IC50 (second compound 0.003 µM): 5600 nM
IC50 (second compound 0.00949 µM): 713 nM
IC50 (second compound 0.03 µM): < 31.6 nM
IC50 (second compound 0.0949 µM): < 31.6 nM
IC50 (second compound 0.3 µM): < 31.6 nM
viability, T/C [1]: 93.6%
viability, T/C [2]: 94.4%
viability, T/C [3]: 91.9%
viability, T/C [4]: 83.5%
viability, T/C [5]: 65.2%
viability, T/C [6]: 34.7%
viability, T/C (second compound 0.00949 µM, first compound 0.0316 µM): 69.6%
viability, T/C (second compound 0.00949 µM, first compound 0.1 µM): 60.8%
viability, T/C (second compound 0.00949 µM, first compound 0.316 µM): 63.4%
viability, T/C (second compound 0.00949 µM, first compound 1 µM): 44.7%
viability, T/C (second compound 0.00949 µM, first compound 3.16 µM): 21.7%
viability, T/C (second compound 0.00949 µM, first compound 10 µM): 9.9%
viability, T/C (second compound 0.03 µM, first compound 0.0316 µM): 2.88%
viability, T/C (second compound 0.03 µM, first compound 0.1 µM): 2.59%
viability, T/C (second compound 0.03 µM, first compound 0.316 µM): 2.6%
viability, T/C (second compound 0.03 µM, first compound 1 µM): 1.45%
viability, T/C (second compound 0.03 µM, first compound 3.16 µM): 1.14%
viability, T/C (second compound 0.03 µM, first compound 10 µM): 1.49%
viability, T/C (second compound 0.0949 µM, first compound 0.0316 µM): 1.83%
viability, T/C (second compound 0.0949 µM, first compound 0.1 µM): 1.47%
viability, T/C (second compound 0.0949 µM, first compound 0.316 µM): 1.42%
viability, T/C (second compound 0.0949 µM, first compound 1 µM): 1.4%
viability, T/C (second compound 0.0949 µM, first compound 3.16 µM): 1.41%
viability, T/C (second compound 0.0949 µM, first compound 10 µM): 1.58%
viability, T/C (second compound 0.3 µM, first compound 0.0316 µM): 7.2%
viability, T/C (second compound 0.3 µM, first compound 0.1 µM): 1.62%
viability, T/C (second compound 0.3 µM, first compound 0.316 µM): 1.88%
viability, T/C (second compound 0.3 µM, first compound 1 µM): 1.53%
viability, T/C (second compound 0.3 µM, first compound 3.16 µM): 1.17%
viability, T/C (second compound 0.3 µM, first compound 10 µM): 4.17%

O=C(c1cc(Cc2n[nH]c(=O)c3ccccc23)ccc1F)N1CCN(C(=O)C2CC2)CC1 + Cn1nnc2c(C(N)=O)ncn2c1=O
IC50 (second compound 1 µM): 5820 nM
IC50 (second compound 3.16 µM): 4960 nM
IC50 (second compound 10 µM): 131 nM
IC50 (second compound 31.6 µM): 490 nM
IC50 (second compound 100 µM): < 94.9 nM
viability, T/C (second compound 1 µM, first compound 0.0949 µM): 96.6%
viability, T/C (second compound 1 µM, first compound 0.3 µM): 99.7%
viability, T/C (second compound 1 µM, first compound 0.949 µM): 87.6%
outcome (second compound 1 µM, first compound 3 µM): inactive
viability, T/C (second compound 1 µM, first compound 9.49 µM): 36.1%
viability, T/C (second compound 1 µM, first compound 30 µM): 7.71%
viability, T/C (second compound 3.16 µM, first compound 0.0949 µM): 104%
viability, T/C (second compound 3.16 µM, first compound 0.3 µM): 99.6%
viability, T/C (second compound 3.16 µM, first compound 0.949 µM): 95.3%
viability, T/C (second compound 3.16 µM, first compound 3 µM): 77.5%
viability, T/C (second compound 3.16 µM, first compound 9.49 µM): 14.7%
viability, T/C (second compound 3.16 µM, first compound 30 µM): 7.81%
outcome (second compound 10 µM, first compound 0.0949 µM): inactive
outcome (second compound 10 µM, first compound 0.3 µM): inactive
viability, T/C (second compound 10 µM, first compound 0.949 µM): 45.5%
viability, T/C (second compound 10 µM, first compound 3 µM): 9.01%
viability, T/C (second compound 10 µM, first compound 9.49 µM): 6.29%
viability, T/C (second compound 10 µM, first compound 30 µM): 3.58%
viability, T/C (second compound 31.6 µM, first compound 0.0949 µM): 90.2%
viability, T/C (second compound 31.6 µM, first compound 0.3 µM): 83.1%
viability, T/C (second compound 31.6 µM, first compound 0.949 µM): 4.8%
viability, T/C (second compound 31.6 µM, first compound 3 µM): 9.51%
viability, T/C (second compound 31.6 µM, first compound 9.49 µM): 3.15%
viability, T/C (second compound 31.6 µM, first compound 30 µM): 4.15%
viability, T/C (second compound 100 µM, first compound 0.0949 µM): 17.8%
viability, T/C (second compound 100 µM, first compound 0.3 µM): 15%
viability, T/C (second compound 100 µM, first compound 0.949 µM): 4.23%
viability, T/C (second compound 100 µM, first compound 3 µM): 5.1%
viability, T/C (second compound 100 µM, first compound 9.49 µM): 3.82%
viability, T/C (second compound 100 µM, first compound 30 µM): 5.19%

CC(C)n1c(=O)n(C)c2cnc3cc(F)c(-c4ccc(OCCCN5CCCCC5)nc4)cc3c21 + COc1cc2c(cc1O)CCNC21CSC2c3c(OC(C)=O)c(C)c4c(c3C(COC1=O)N1C(O)C3Cc5cc(C)c(OC)c(O)c5C(C21)N3C)OCO4
IC50 (second compound 30 pM): > 10000 nM
IC50 (second compound 94.9 pM): < 31.6 nM
IC50 (second compound 0.0003 µM): < 31.6 nM
IC50 (second compound 0.000949 µM): < 31.6 nM
IC50 (second compound 0.003 µM): < 31.6 nM
viability, T/C (second compound 30 pM, first compound 0.0316 µM): 83.8%
viability, T/C (second compound 30 pM, first compound 0.1 µM): 79.7%
viability, T/C (second compound 30 pM, first compound 0.316 µM): 78.9%
viability, T/C (second compound 30 pM, first compound 1 µM): 79.1%
viability, T/C (second compound 30 pM, first compound 3.16 µM): 79.1%
viability, T/C (second compound 30 pM, first compound 10 µM): 69.5%
viability, T/C (second compound 94.9 pM, first compound 0.0316 µM): 40.4%
viability, T/C (second compound 94.9 pM, first compound 0.1 µM): 34.5%
viability, T/C (second compound 94.9 pM, first compound 0.316 µM): 32%
viability, T/C (second compound 94.9 pM, first compound 1 µM): 25.9%
viability, T/C (second compound 94.9 pM, first compound 3.16 µM): 26.2%
viability, T/C (second compound 94.9 pM, first compound 10 µM): 18%
viability, T/C (second compound 0.0003 µM, first compound 0.0316 µM): 3.09%
viability, T/C (second compound 0.0003 µM, first compound 0.1 µM): 3.02%
viability, T/C (second compound 0.0003 µM, first compound 0.316 µM): 2.66%
viability, T/C (second compound 0.0003 µM, first compound 1 µM): 2.5%
viability, T/C (second compound 0.0003 µM, first compound 3.16 µM): 2.79%
viability, T/C (second compound 0.0003 µM, first compound 10 µM): 2%
viability, T/C (second compound 0.000949 µM, first compound 0.0316 µM): 2.82%
viability, T/C (second compound 0.000949 µM, first compound 0.1 µM): 3.14%
viability, T/C (second compound 0.000949 µM, first compound 0.316 µM): 3.38%
viability, T/C (second compound 0.000949 µM, first compound 1 µM): 2.32%
viability, T/C (second compound 0.000949 µM, first compound 3.16 µM): 2.06%
viability, T/C (second compound 0.000949 µM, first compound 10 µM): 1.47%
viability, T/C [1]: 0.11%
viability, T/C [2]: 0.12%
viability, T/C [3]: 0.11%
viability, T/C [4]: 0.1%
viability, T/C [5]: 0.1%
viability, T/C [6]: 0.15%
